Converted amounts (≈) assume the structure as drawn.
System: Staphylococcus aureus
Test: antibiotic activity (MIC) on Staphylococcus aureus
Type: cell-based

CO[C@H]1/C=C/O[C@@]2(C)Oc3c(C)c(O)c4c(O)c(c(/C=N/N5CCN(C)CC5)c(O)c4c3C2=O)NC(=O)/C(C)=C\C=C\[C@H](C)[C@H](O)[C@@H](C)[C@@H](O)[C@@H](C)[C@H](OC(C)=O)[C@@H]1C [rifampicin]
MIC: ~0.01 µg/mL (≈ 0.0122 µM)

Reference: patent US4372961A, “Derivatives of rifamycins, their preparation and pharmaceutical compositions thereof” (priority 1980, dated 1983)
